Here are results for 2 substances from patent publication US9593146B2, “CD44v6-derived peptides for treating metastasizing cancer” (AMCURE GMBH, priority 2012, dated 2017).

In one series the test system is Met. As to conditions: N to A and E to A mutated pentapeptide; cited from earlier work.
For the next series, the system named is L3.6pl cells. Kind of series: Staining of L3.6pl cells with DY681-labeled peptides. Format: cell-based, human. As to conditions: DY681 labeled peptide. As to the method: ASs6 or L3.6pl cells were seeded at 5,000 cells/well of a Lab-TekR Chamber Slide™ (Nunc, Napierville, Ill., USA). On the following day the cells were washed with cold PBS and fixed with 4% Formalin for 30 min at RT. Unspecific binding was blocked with 1% BSA in PBS for 1 hour at RT. The cells were incubated for 1 hour with the DY681-labeled peptides. After three washing steps with PBS the cover slips were mounted with Fluorescence Mounting Medium (Dako, Glostrup, Denmark) and the immunofluorescence was measured by a laser scanning confocal microscope Leica TCS2 SP2 (Exton, Pa., USA) and processed using Leica confocal software. A 20× objective was used for imaging.

The test system of a further series is L3.6pl tumors. Briefly: In vivo / ex vivo imaging (Pearl Imager) of mice with L3.6pl tumors. How it is done: In vivo imaging of the mice with the L3.6pl tumors was performed using the Pearl™ Imager (LI-COR Biosciences, Bad Homburg, Germany). The system uses two lasers (685 and 785 nm) for excitation and a charge-coupled device detector for signal detection. The laser excitation enables a deep tissue penetration. With the near-infrared detection a high sensitivity due to the reduced tissue auto-fluorescence is achieved. In order to standardize the images we made use of the Pearl Cam Software. The animals were fed with chlorophyll-reduced food to reduce the fluorescence background one week before imaging (Regime 210, safe-diets, Augy, France). Prior to imaging the mice were anesthetized with 2.0% isoflurane. Animals were placed on the heated plate of the imager and continuous delivery of isoflurane was achieved through a nose cone in the imaging drawer. Images were captured at white light, 700 and 800 nm. Animals were imaged prior to i.v. peptide injection and 24 h after injection with either DY681-labeled human v6 peptide or DY681-labeled rat v6 peptide as control. Immediately after each imaging session animals were killed, tumor, liver and spleen isolated and scanned ex vivo at white light, 700 and 800 nm.

In another series the test system is Met and ERK. Briefly: HGF induced activation of Met and ERK in L3.6pl cells (Western blot). The series is classed as cell-based, human. The settings on record: L3.6pl cells induced with HGF (FIG. 5A right). As to the method:
Serum-starved cells (24 hours) were induced with the growth factor HGF (10 ng/mL) at 37° C. for 5 minutes. Where indicated, the cells were treated with peptides (100 ng/ml) prior to induction at 37° C. for 10 minutes (100 ng/mL CD44v6 peptide or control peptide). Following the induction with HGF, cells were washed with ice-cold phosphate-buffered saline (PBS). To detect activated Met and Erk, cells were lysed in sodium dodecyl sulfate (SDS)-sample buffer containing 100 mM dithiothreitol (DTT), boiled and subjected to western blot analysis using antibodies against phospho-Met and ERK. The loading controls were performed on the same blot after stripping (62.5 mM Tris, pH 6.8, 2% SDS, 0.8% DTT) by probing with the Met respectively ERK antibody. Blots were stained using the enhanced chemiluminescence system (Thermo Fisher Scientific, Schwerte, Germany). Bands in western blot analysis were quantified with the program Image J (National Institutes of Health).

On to “A-R-W-H-A (ARWHA) [pentapeptide with N and E mutated to A]”, for which, in the series on Met, the Met activation result is recorded as “capable of abrogating Met activation”.
With “WFGNRWHEGYR [DY681 human v6 peptide, human v6 11mer labeled with DY681]”, the “binding to L3.6pl cells in cell culture” value in the series on L3.6pl cells is “bound to these cells in cell culture”. For the same substance, the “fluorescence / accumulation in the orthotopic L3.6pl tumor in vivo” value in the series with L3.6pl tumors (20 μg i.v., 24 h after injection) is “accumulated specifically in the tumor”. Besides, the “ex vivo binding to primary tumors, livers” value in the series on L3.6pl tumors (organs excised 24 h after injection) is listed as “binding not only to primary tumors but also to areas of the liver”. The “inhibition of Met activation by DY681 labeled peptide” value with Met and ERK is “inhibited Met activation in L3.6pl cells”.
